Data published in patent US10183014B2, “Ocular formulations for drug-delivery and protection of the anterior segment of the eye” (PanOptica, Inc., priority 2014, dated 2019).
Read-outs that look alike come from different tables or passages of the source.

Assays:
[1] = Ocular pharmacokinetics of formulations, Example 20-4; assay type: in vivo, Dutch Belted rabbits; conditions: Day 5, 1 hr post dose
Description: The study design (Table 18-1) consisted of forty-nine (49) Dutch Belted rabbits, each receiving a 30 μL bilateral topical ocular dose.
Ocular sampling occurred one hour following the first daily dose on Day 5 for all groups. Whole blood samples using K2EDTA as an anticoagulant were collected from all animals on Day 5, 1 hour post dose. The whole blood was placed on ice until samples were spun in a centrifuge to separate the plasma. Aqueous humor, conjunctiva, cornea, central retina, peripheral retina, central choroid, and peripheral choroid samples were collected following necropsy. Samples were then frozen at −70° C. or lower. For all Groups 1-16, plasma, central retina, central choroid, and cornea samples were assayed for PAN-90806.

[2] = target: ABL1 Y253F (Homo sapiens, UniProt P00519, Y253F); assay: In vitro inhibition of tyrosine kinases; assay type: biochemical; conditions: read-out: Mean % Inhibition at 1 μM Compound-I; 1 μM (568.9 ng/mL)

Cl.NC(=O)c1c(OCc2c(F)cc(Br)cc2F)nsc1NC(=O)NCCCCN1CCCC1 [Compound-I, 3-[(4-bromo-2,6-difluorophenyl)methoxy]-5-[[[[4-(1-pyrrolidinyl)butyl]amino]carbonyl]amino]-4-isothiazolecarboxamide hydrochloride]
concentration at 1 h ([1]; Dutch Belted, rabbit, central choroid, topical, 4 mg/mL (30 μL per eye, bilateral), pH 6, Group 3: 4 mg/mL Salt, eye drops solution (control), pH 6, QD, read-out: Central Choroid concentration): 181 nM
concentration at 1 h ([1]; Dutch Belted, rabbit, central choroid, topical, 4 mg/mL (30 μL per eye, bilateral), Group 16: 4 mg/mL Salt suspension, PSD 30 μm/XL, TRIS 0.60%, glycerol 2%, HEC 0.2%, HPMC 0.08%, VitK3 1 μM, pH 7, QD, read-out: Central Choroid concentration): 208 nM
concentration at 1 h ([1]; Dutch Belted, rabbit, central choroid, topical, 30 μL per eye of 4 mg/mL suspension, Group 7: 4 mg/mL Salt suspension, PSD 30 μm/XL, TRIS 0.60%, glycerol 2%, HEC 0.3%, Tylox 0.04%, VitK3 1 μM, pH 6, QD, read-out: Central Choroid concentration): 142 nM
concentration at 1 h ([1]; Dutch Belted, rabbit, central choroid, topical, 30 μL per eye of 4 mg/mL suspension, Group 9: 4 mg/mL Salt suspension, PSD 30 μm/XL, TRIS 0.60%, glycerol 2%, HEC 0.3%, Tylox 0.04%, VitK3 1 μM, pH 7, QD, read-out: Central Choroid concentration): 224 nM
concentration at 1 h ([1]; Dutch Belted, rabbit, central choroid, topical, 30 μL per eye of 6 mg/mL suspension, Group 6: 6 mg/mL Salt suspension, PSD 30 μm/XL, TRIS 0.60%, glycerol 2%, HEC 0.2%, HPMC 0.08%, VitK3 1 μM, pH 6, QD, read-out: Central Choroid concentration): 243 nM
concentration at 1 h ([1]; Dutch Belted, rabbit, central retina, topical, 0.3 mg/mL (30 μL per eye, bilateral), pH 6, Group 1: 0.3 mg/mL Salt, pH 6, BID, read-out: Central Retina concentration): 16.3 nM
concentration at 1 h ([1]; Dutch Belted, rabbit, central retina, topical, 1 mg/mL (30 μL per eye, bilateral), pH 6, Group 2: 1 mg/mL Salt, eye drops solution (control), pH 6, QD, read-out: Central Retina concentration): 34.7 nM
concentration at 1 h ([1]; Dutch Belted, rabbit, central retina, topical, 4 mg/mL (30 μL per eye, bilateral), pH 6, Group 3: 4 mg/mL Salt, eye drops solution (control), pH 6, QD, read-out: Central Retina concentration): 83.7 nM
concentration at 1 h ([1]; Dutch Belted, rabbit, central retina, topical, 4 mg/mL (30 μL per eye, bilateral), Group 16: 4 mg/mL Salt suspension, PSD 30 μm/XL, TRIS 0.60%, glycerol 2%, HEC 0.2%, HPMC 0.08%, VitK3 1 μM, pH 7, QD, read-out: Central Retina concentration): 74.4 nM
concentration at 1 h ([1]; Dutch Belted, rabbit, central retina, topical, 30 μL per eye of 6 mg/mL suspension, Group 6: 6 mg/mL Salt suspension, PSD 30 μm/XL, TRIS 0.60%, glycerol 2%, HEC 0.2%, HPMC 0.08%, VitK3 1 μM, pH 6, QD, read-out: Central Retina concentration): 136 nM
concentration at 1 h ([1]; Dutch Belted, rabbit, cornea, topical, 0.3 mg/mL (30 μL per eye, bilateral), pH 6, Group 1: 0.3 mg/mL Salt, pH 6, BID, read-out: Cornea concentration): 3330 nM
concentration at 1 h ([1]; Dutch Belted, rabbit, cornea, topical, 1 mg/mL (30 μL per eye, bilateral), pH 6, Group 2: 1 mg/mL Salt, eye drops solution (control), pH 6, QD, read-out: Cornea concentration): 7060 nM
concentration at 1 h ([1]; Dutch Belted, rabbit, cornea, topical, 4 mg/mL (30 μL per eye, bilateral), pH 6, Group 3: 4 mg/mL Salt, eye drops solution (control), pH 6, QD, read-out: Cornea concentration): 15900 nM
concentration at 1 h ([1]; Dutch Belted, rabbit, cornea, topical, 4 mg/mL (30 μL per eye, bilateral), Group 16: 4 mg/mL Salt suspension, PSD 30 μm/XL, TRIS 0.60%, glycerol 2%, HEC 0.2%, HPMC 0.08%, VitK3 1 μM, pH 7, QD, read-out: Cornea concentration): 14700 nM
concentration at 1 h ([1]; Dutch Belted, rabbit, cornea, topical, 30 μL per eye of 6 mg/mL suspension, QD, pH 6, Group 6: 6 mg/mL Salt suspension, PSD 30 μm/XL, TRIS 0.60%, glycerol 2%, HEC 0.2%, HPMC 0.08%, VitK3 1 μM, pH 6, QD, read-out: Cornea concentration): 14400 nM
concentration at 1 h ([1]; Dutch Belted, rabbit, plasma, topical, 1 mg/mL (30 μL per eye, bilateral), pH 6, Group 2: 1 mg/mL Salt, eye drops solution (control), pH 6, QD, read-out: Plasma concentration): 2.67 nM
concentration at 1 h ([1]; Dutch Belted, rabbit, plasma, topical, 4 mg/mL (30 μL per eye, bilateral), pH 6, Group 3: 4 mg/mL Salt, eye drops solution (control), pH 6, QD, read-out: Plasma concentration): 4.5 nM
concentration at 1 h ([1]; Dutch Belted, rabbit, plasma, topical, 30 μL per eye of 4 mg/mL suspension, Group 7: 4 mg/mL Salt suspension, PSD 30 μm/XL, TRIS 0.60%, glycerol 2%, HEC 0.3%, Tylox 0.04%, VitK3 1 μM, pH 6, QD, read-out: Plasma concentration): 5.56 nM
concentration at 1 h ([1]; Dutch Belted, rabbit, plasma, topical, 30 μL per eye of 6 mg/mL suspension, QD, pH 6, Group 6: 6 mg/mL Salt suspension, PSD 30 μm/XL, TRIS 0.60%, glycerol 2%, HEC 0.2%, HPMC 0.08%, VitK3 1 μM, pH 6, QD, read-out: Plasma concentration): 9.98 nM
Plasma concentration ([1]; Group 1: 0.3 mg/mL Salt, pH 6, BID, LLOQ = 0.00188 μM): <LLOQ
Central Choroid concentration ([1]; Group 1: 0.3 mg/mL Salt, pH 6, BID, LLOQ = 0.0563 μM): <LLOQ
concentration at 1 h ([1]; Group 7: 4 mg/mL Salt suspension, PSD 30 μm/XL, TRIS 0.60%, glycerol 2%, HEC 0.3%, Tylox 0.04%, VitK3 1 μM, pH 6, QD, read-out: Central Retina concentration): 69.7 nM
Plasma concentration ([1]; Group 8: 4 mg/mL Salt suspension, PSD 30 μm/XL, TRIS 0.60%, glycerol 2%, HEC 0.2%, Tylox 0.04%, VitK3 1 μM, pH 6, QD): 6.62 nM
concentration at 1 h ([1]; Group 8: 4 mg/mL Salt suspension, PSD 30 μm/XL, TRIS 0.60%, glycerol 2%, HEC 0.2%, Tylox 0.04%, VitK3 1 μM, pH 6, QD, read-out: Central Choroid concentration): 152 nM
concentration at 1 h ([1]; Group 8: 4 mg/mL Salt suspension, PSD 30 μm/XL, TRIS 0.60%, glycerol 2%, HEC 0.2%, Tylox 0.04%, VitK3 1 μM, pH 6, QD, read-out: Central Retina concentration): 90.1 nM
Plasma concentration ([1]; Group 9: 4 mg/mL Salt suspension, PSD 30 μm/XL, TRIS 0.60%, glycerol 2%, HEC 0.3%, Tylox 0.04%, VitK3 1 μM, pH 7, QD): 7.38 nM
concentration at 1 h ([1]; Group 9: 4 mg/mL Salt suspension, PSD 30 μm/XL, TRIS 0.60%, glycerol 2%, HEC 0.3%, Tylox 0.04%, VitK3 1 μM, pH 7, QD, read-out: Central Retina concentration): 102 nM
Plasma concentration ([1]; Group 10: 4 mg/mL Salt suspension, PSD 30 μm/XL, TRIS 0.60%, glycerol 2%, HEC 0.2%, Tylox 0.04%, VitK3 1 μM, pH 7, QD): 5.28 nM
concentration at 1 h ([1]; Group 10: 4 mg/mL Salt suspension, PSD 30 μm/XL, TRIS 0.60%, glycerol 2%, HEC 0.2%, Tylox 0.04%, VitK3 1 μM, pH 7, QD, read-out: Central Choroid concentration): 166 nM
concentration at 1 h ([1]; Group 10: 4 mg/mL Salt suspension, PSD 30 μm/XL, TRIS 0.60%, glycerol 2%, HEC 0.2%, Tylox 0.04%, VitK3 1 μM, pH 7, QD, read-out: Central Retina concentration): 50.2 nM
Plasma concentration ([1]; Group 11: 4 mg/mL Salt suspension, PSD 30 μm/XL, TRIS 0.60%, glycerol 2%, HEC 0.3%, HPMC 0.08%, VitK3 1 μM, pH 6, QD): 4.65 nM
concentration at 1 h ([1]; Group 11: 4 mg/mL Salt suspension, PSD 30 μm/XL, TRIS 0.60%, glycerol 2%, HEC 0.3%, HPMC 0.08%, VitK3 1 μM, pH 6, QD, read-out: Central Choroid concentration): 154 nM
concentration at 1 h ([1]; Group 11: 4 mg/mL Salt suspension, PSD 30 μm/XL, TRIS 0.60%, glycerol 2%, HEC 0.3%, HPMC 0.08%, VitK3 1 μM, pH 6, QD, read-out: Central Retina concentration): 79.6 nM
Plasma concentration ([1]; Group 12: 4 mg/mL Salt suspension, PSD 30 μm/XL, TRIS 0.60%, glycerol 2%, HEC 0.2%, HPMC 0.08%, VitK3 1 μM, pH 6, QD): 3.66 nM
concentration at 1 h ([1]; Group 12: 4 mg/mL Salt suspension, PSD 30 μm/XL, TRIS 0.60%, glycerol 2%, HEC 0.2%, HPMC 0.08%, VitK3 1 μM, pH 6, QD, read-out: Central Choroid concentration): 137 nM
concentration at 1 h ([1]; Group 12: 4 mg/mL Salt suspension, PSD 30 μm/XL, TRIS 0.60%, glycerol 2%, HEC 0.2%, HPMC 0.08%, VitK3 1 μM, pH 6, QD, read-out: Central Retina concentration): 49 nM
Plasma concentration ([1]; Group 13: 4 mg/mL Salt suspension, PSD Native (≈50) μm/XXL, TRIS 0.60%, glycerol 2%, HEC 0.2%, HPMC 0.08%, VitK3 1 μM, pH 6, QD): 5.24 nM
concentration at 1 h ([1]; Group 13: 4 mg/mL Salt suspension, PSD Native (≈50) μm/XXL, TRIS 0.60%, glycerol 2%, HEC 0.2%, HPMC 0.08%, VitK3 1 μM, pH 6, QD, read-out: Central Choroid concentration): 234 nM
concentration at 1 h ([1]; Group 13: 4 mg/mL Salt suspension, PSD Native (≈50) μm/XXL, TRIS 0.60%, glycerol 2%, HEC 0.2%, HPMC 0.08%, VitK3 1 μM, pH 6, QD, read-out: Central Retina concentration): 67.7 nM
Plasma concentration ([1]; Group 14: 4 mg/mL Salt suspension, PSD 3 μm/Large, TRIS 0.60%, glycerol 2%, HEC 0.2%, HPMC 0.08%, VitK3 1 μM, pH 6, QD): 4.99 nM
concentration at 1 h ([1]; Group 14: 4 mg/mL Salt suspension, PSD 3 μm/Large, TRIS 0.60%, glycerol 2%, HEC 0.2%, HPMC 0.08%, VitK3 1 μM, pH 6, QD, read-out: Central Choroid concentration): 241 nM
concentration at 1 h ([1]; Group 14: 4 mg/mL Salt suspension, PSD 3 μm/Large, TRIS 0.60%, glycerol 2%, HEC 0.2%, HPMC 0.08%, VitK3 1 μM, pH 6, QD, read-out: Central Retina concentration): 99.2 nM
Plasma concentration ([1]; Group 15: 4 mg/mL Salt suspension, PSD 30 μm/XL, TRIS 0.60%, glycerol 2%, HEC 0.3%, HPMC 0.08%, VitK3 1 μM, pH 7, QD): 3.25 nM
concentration at 1 h ([1]; Group 15: 4 mg/mL Salt suspension, PSD 30 μm/XL, TRIS 0.60%, glycerol 2%, HEC 0.3%, HPMC 0.08%, VitK3 1 μM, pH 7, QD, read-out: Central Choroid concentration): 200 nM
concentration at 1 h ([1]; Group 15: 4 mg/mL Salt suspension, PSD 30 μm/XL, TRIS 0.60%, glycerol 2%, HEC 0.3%, HPMC 0.08%, VitK3 1 μM, pH 7, QD, read-out: Central Retina concentration): 53.2 nM
inhibition at 1 µM [2]: 93%
